Source: US20260372303A1, “5-Fluoro-4-Imino-3-Methyl-1-Tosyl-3, 4-Dihydropyrimidin-2(1H) -One for Fungicide-Resistant Fungus” (priority 2022, published 2026)

Assays:
Assay type in all cases: in vivo
[1] = system: Zymoseptoria tritici strain Zt StA; assay: In planta preventive efficacy on wheat cv. Alixan against Zymoseptoria tritici strain Zt StA (control strain, sensitive); details: for Disease Severity Intensity: % of length of 2nd leaf blade, preventive 24 h; for AUDPC: control 781.6
Protocol: (§1) A series of experiments were conducted to evaluate the efficacy of flumetylsulforim (ADF-16) for treating different strains of Zymoseptoria tritici in comparison with commercially available fungicides. Table 1 describes the Z. tritici strains used in this study and Table 2 describes the fungicides used in this study.
(§2) Winter wheat plants cv. Alixan (Limagrain) at the BBCH 12 growth stage were treated preventively with sterile distilled water (control), ADF-16, penthiopyrad, metconazole or tebuconazole at the rates described in Table 2 with a hand sprayer at 2 bars.
(§3) After treatment, wheat plants were left to dry at room temperature for 1 hour and then placed in a climatic chamber: temperature of 24 °C day/18 °C night-photoperiod of 16 h light/8 h dark and a relative humidity of 65%.
(§4) Untreated or treated whole wheat plants were inoculated 24-hours post-treatment with a calibrated pycnospore suspension of Z. tritici strains Zt StA, Zt 61, Zt 99, Zt 20, Zt 19-52, and Zt 38-02. Three replicates (pots) of 6 wheat plants each were used for each condition tested.
(§5) After inoculation, pots were transferred in a climatic chamber: temperature of 20 °C day/17 °C night—photoperiod of 16 h light/8 h dark and controlled relative humidity.
(§6) Disease assessments were carried out at 15 days post inoculation (dpi), 21 dpi and 28 dpi by measuring the length of the necrosis on the second leaf blade. The intensity of infection was then determined as a percentage of the total length of 2nd leaf blade.
(§7) The fungicide efficacies were determined from the Area Under the Disease Progress Curve (AUDPC) values and expressed as a percentage of the untreated control.
(§8) The AUDPC is a quantitative measure of disease intensity over time. The most commonly used method for estimating the AUDPC, the trapezoidal method, is performed by multiplying the average disease intensity between each pair of adjacent timepoints by the corresponding time interval and this for each time interval. The AUDPC is determined with the following formula by adding all of the trapezoids:
(§9) [formula] • yi=disease severity at the ith observation • ti=time (days) at the ith observation • N=total number of observations

[2] = system: Zymoseptoria tritici strain Zt 61; assay: In planta preventive efficacy on wheat cv. Alixan against Zymoseptoria tritici strain Zt 61; set-up: fungicide efficacy: concentration or dose not given beside the values; details: for Disease Severity Intensity: % of length of 2nd leaf blade, preventive 24 h; for AUDPC: control 1194.9
Protocol: as §1, §2, §3, §4, §5, §6, §7, §8, §9

[3] = system: Zymoseptoria tritici strain Zt 99; assay: In planta preventive efficacy on wheat cv. Alixan against Zymoseptoria tritici strain Zt 99; details: for Disease Severity Intensity: % of length of 2nd leaf blade, preventive 24 h; for AUDPC: control 1352.9
Protocol: as §1, §2, §3, §4, §5, §6, §7, §8, §9

[4] = system: Zymoseptoria tritici strain Zt 19-52; assay: In planta preventive efficacy on wheat cv. Alixan against Zymoseptoria tritici strain Zt 19-52; details: % of length of 2nd leaf blade, preventive 24 h
Protocol: as §1, §2, §3, §4, §5, §6, §7, §8, §9

[5] = system: Zymoseptoria tritici strain Zt 20; assay: In planta preventive efficacy on wheat cv. Alixan against Zymoseptoria tritici strain Zt 20; details: % of length of 2nd leaf blade, preventive 24 h
Protocol: as §1, §2, §3, §4, §5, §6, §7, §8, §9

[6] = system: Zymoseptoria tritici strain Zt 38-02; assay: In planta preventive efficacy on wheat cv. Alixan against Zymoseptoria tritici strain Zt 38-02; details: for Disease Severity Intensity: % of length of 2nd leaf blade, preventive 24 h; for AUDPC: control 1261.4
Protocol: as §1, §2, §3, §4, §5, §6, §7, §8, §9

[7] = 15 dpi, rate N (g a.i./ha): ADF-16 100, penthiopyrad 200, metconazole 90, tebuconazole 250, control also no disease
[8] = 15 dpi, rate N/2.5 (g a.i./ha): ADF-16 40, penthiopyrad 80, metconazole 36, tebuconazole 100, control also no disease
[9] = rate N (g a.i./ha): ADF-16 100, penthiopyrad 200, metconazole 90, tebuconazole 250
[10] = rate N/2.5 (g a.i./ha): ADF-16 40, penthiopyrad 80, metconazole 36, tebuconazole 100

Compound: CC1(C)CCC(Cc2ccc(Cl)cc2)C1(O)Cn1cncn1 (centres unmarked) [Metconazole]
- Disease Severity Intensity [1, 7]: No disease
- Disease Severity Intensity [1, 8]: No disease
- Disease Severity Intensity ([1]; 21 dpi, rate N (g a.i./ha): ADF-16 100, penthiopyrad 200, metconazole 90, tebuconazole 250, control 36.5): 0.0 +/− 0.0b %
- Disease Severity Intensity ([1]; 21 dpi, rate N/2.5 (g a.i./ha): ADF-16 40, penthiopyrad 80, metconazole 36, tebuconazole 100, control 36.5): 0.0 +/− 0.0b %
- Disease Severity Intensity ([1]; 28 dpi, rate N (g a.i./ha): ADF-16 100, penthiopyrad 200, metconazole 90, tebuconazole 250, control 77.4): 0.0 +/− 0.0b %
- Disease Severity Intensity ([1]; 28 dpi, rate N/2.5 (g a.i./ha): ADF-16 40, penthiopyrad 80, metconazole 36, tebuconazole 100, control 77.4): 0.0 +/− 0.0b %
- Efficacy (from AUDPC, percentage of the untreated control) [1, 9]: 100%
- AUDPC [1, 9]: 0.0 +/− 0.0b
- Efficacy (from AUDPC, percentage of the untreated control) [1, 10]: 100%
- AUDPC [1, 10]: 0.0 +/− 0.0b
- Disease Severity Intensity [2, 7]: No disease
- Disease Severity Intensity [2, 8]: No disease
- Disease Severity Intensity ([2]; 21 dpi, rate N/2.5 (g a.i./ha): ADF-16 40, penthiopyrad 80, metconazole 36, tebuconazole 100, control 63.3): 10.1 +/− 1.6c %
- Disease Severity Intensity ([2]; 28 dpi, rate N (g a.i./ha): ADF-16 100, penthiopyrad 200, metconazole 90, tebuconazole 250, control 88.1): 35.1 +/− 3.8d %
- Disease Severity Intensity ([2]; 28 dpi, rate N/2.5 (g a.i./ha): ADF-16 40, penthiopyrad 80, metconazole 36, tebuconazole 100, control 88.1): 65.6 +/− 4.2bc %
- fungicide efficacy ([2]; higher application rates (N)): ≥ 85%
- fungicide efficacy ([2]; lower application rates (N/2.5)): ≤ 70%
- Efficacy (from AUDPC, percentage of the untreated control) [2, 9]: 85.9%
- AUDPC [2, 9]: 168.8 +/− 45.4cd
- Efficacy (from AUDPC, percentage of the untreated control) [2, 10]: 68.9%
- AUDPC [2, 10]: 371.8 +/− 48.7b
- Disease Severity Intensity ([3]; 15 dpi, rate N (g a.i./ha): ADF-16 100, penthiopyrad 200, metconazole 90, tebuconazole 250, control 47.9): 0.0 +/− 0.0d %
- Disease Severity Intensity ([3]; 15 dpi, rate N/2.5 (g a.i./ha): ADF-16 40, penthiopyrad 80, metconazole 36, tebuconazole 100, control 47.9): 1.3 +/− 1.2d %
- Disease Severity Intensity ([3]; 21 dpi, rate N (g a.i./ha): ADF-16 100, penthiopyrad 200, metconazole 90, tebuconazole 250, control 81.0): 18.2 +/− 2.6d %
- Disease Severity Intensity ([3]; 21 dpi, rate N/2.5 (g a.i./ha): ADF-16 40, penthiopyrad 80, metconazole 36, tebuconazole 100, control 81.0): 58.7 +/− 2.8c %
- Disease Severity Intensity ([3]; 28 dpi, rate N (g a.i./ha): ADF-16 100, penthiopyrad 200, metconazole 90, tebuconazole 250, control 92.2): 86.3 +/− 2.4ab %
- Disease Severity Intensity ([3]; 28 dpi, rate N/2.5 (g a.i./ha): ADF-16 40, penthiopyrad 80, metconazole 36, tebuconazole 100, control 92.2): 84.6 +/− 4.3b %
- Efficacy (from AUDPC, percentage of the untreated control) [3, 9]: 69.0%
- AUDPC [3, 9]: 419.9 +/− 29.6e
- Efficacy (from AUDPC, percentage of the untreated control) [3, 10]: 48.9%
- AUDPC [3, 10]: 691.1 ± 28.1 days
- Disease Severity Intensity ([4]; 15 dpi, rate N (g a.i./ha): ADF-16 100, penthiopyrad 200, metconazole 90, tebuconazole 250, control 22.0): 0.0 +/− 0.0b %
- Disease Severity Intensity ([4]; 15 dpi, rate N/2.5 (g a.i./ha): ADF-16 40, penthiopyrad 80, metconazole 36, tebuconazole 100, control 22.0): 0.0 +/− 0.0b %
- Disease Severity Intensity ([4]; 21 dpi, rate N (g a.i./ha): ADF-16 100, penthiopyrad 200, metconazole 90, tebuconazole 250, control 81.7): 0.3 +/− 0.2c %
- Disease Severity Intensity ([4]; 21 dpi, rate N/2.5 (g a.i./ha): ADF-16 40, penthiopyrad 80, metconazole 36, tebuconazole 100, control 81.7): 2.1 +/− 0.8b %
- Disease Severity Intensity ([4]; 28 dpi, rate N (g a.i./ha): ADF-16 100, penthiopyrad 200, metconazole 90, tebuconazole 250, control 91.0): 12.0 +/− 1.9c %
- Disease Severity Intensity ([4]; 28 dpi, rate N/2.5 (g a.i./ha): ADF-16 40, penthiopyrad 80, metconazole 36, tebuconazole 100, control 91.0): 22.4 +/− 2.3b %
- Disease Severity Intensity [5, 7]: No disease
- Disease Severity Intensity [5, 8]: No disease
- Disease Severity Intensity ([5]; 21 dpi, rate N (g a.i./ha): ADF-16 100, penthiopyrad 200, metconazole 90, tebuconazole 250, control 77.2): 1.9 +/− 0.7cd %
- Disease Severity Intensity ([5]; 21 dpi, rate N/2.5 (g a.i./ha): ADF-16 40, penthiopyrad 80, metconazole 36, tebuconazole 100, control 77.2): 15.1 +/− 2.8b %
- Disease Severity Intensity ([5]; 28 dpi, rate N (g a.i./ha): ADF-16 100, penthiopyrad 200, metconazole 90, tebuconazole 250, control 95.5): 33.0 +/− 3.6d %
- Disease Severity Intensity ([5]; 28 dpi, rate N/2.5 (g a.i./ha): ADF-16 40, penthiopyrad 80, metconazole 36, tebuconazole 100, control 95.5): 78.0 +/− 5.0b %
- Disease Severity Intensity ([6]; 15 dpi, rate N (g a.i./ha): ADF-16 100, penthiopyrad 200, metconazole 90, tebuconazole 250, control 36.0): 0.0 +/− 0.0b %
- Disease Severity Intensity ([6]; 15 dpi, rate N/2.5 (g a.i./ha): ADF-16 40, penthiopyrad 80, metconazole 36, tebuconazole 100, control 36.0): 1.7 +/− 0.9b %
- Disease Severity Intensity ([6]; 21 dpi, rate N (g a.i./ha): ADF-16 100, penthiopyrad 200, metconazole 90, tebuconazole 250, control 84.3): 25.6 +/− 3.9d %
- Disease Severity Intensity ([6]; 21 dpi, rate N/2.5 (g a.i./ha): ADF-16 40, penthiopyrad 80, metconazole 36, tebuconazole 100, control 84.3): 61.8 +/− 2.5bc %
- Disease Severity Intensity ([6]; 28 dpi, rate N (g a.i./ha): ADF-16 100, penthiopyrad 200, metconazole 90, tebuconazole 250, control 95.7): 82.4 +/− 3.4c %
- Disease Severity Intensity ([6]; 28 dpi, rate N/2.5 (g a.i./ha): ADF-16 40, penthiopyrad 80, metconazole 36, tebuconazole 100, control 95.7): 92.1 +/− 1.2b %
- Efficacy (from AUDPC, percentage of the untreated control) [6, 9]: 64.0%
- AUDPC [6, 9]: 454.7 +/− 29.0c
- Efficacy (from AUDPC, percentage of the untreated control) [6, 10]: 41.1%
- AUDPC [6, 10]: 743.0 +/− 14.9b
